{"source": "patent US8513260B2", "about": "“Pyrazinylpyrazoles” (Bayer CropScience AG, priority 2009, dated 2013)"}
{"test_system": "not listed separately", "assay": "logP by HPLC on reversed-phase columns (C 18), EEC Directive 79/831 Annex V.A8", "type": "physicochemical", "conditions": "reversed-phase C18 HPLC column, pH 2.7, * LC-MS, acidic range pH 2.7, 0.1% aqueous formic acid and acetonitrile; read-out: log P", "description": "[table] The calibration is effected with unbranched alkan-2-ones (having 3 to 16 carbon atoms) with known logP values (logP values determined on the basis of the retention times by linear interpolation between two successive alkanones)."}
{"smiles": "CCOc1nccnc1-n1nc(C(F)(F)F)c(-c2cc(Cl)c3c(c2)OCO3)c1N", "note": "[Ex. 171]", "chromatographic logP": 3.48}
{"smiles": "CCOc1nccnc1-n1nc(C(F)(F)F)c(-c2cc(C#N)c3c(c2)OCO3)c1N", "note": "[Ex. 172]", "chromatographic logP": 3.01}
{"smiles": "COc1nccnc1-n1nc(C(F)(F)F)c(-c2cc(F)c3c(c2)OCO3)c1N", "note": "[Ex. 174]", "chromatographic logP": 2.91}
{"smiles": "CCOc1nccnc1-n1nc(C(F)(F)F)c(-c2cc(F)c3c(c2)OCO3)c1N", "note": "[Ex. 175]", "chromatographic logP": 3.27}
{"test_system": "Boophilus microplus", "assay": "Boophilus microplus test (BOOPMI injection)", "type": "in vivo", "conditions": "20 μg animal; injection into the abdomen; after 7 days, laying of fertile eggs", "method": "Boophilus microplus Test (BOOPMI Injection) Solvent: dimethyl sulphoxide To prepare an appropriate active ingredient formulation, 10 mg of active ingredient are mixed with 0.5 ml of solvent and the concentrate is diluted with solvent to the desired concentration. The active ingredient solution is injected into the abdomen (Boophilus microplus), and the animals are transferred into dishes and stored in a climate-controlled room. The efficacy is assessed by laying of fertile eggs. After 7 days, the efficacy in % is determined. 100% means that none of the ticks has laid any fertile eggs.", "units": {"efficacy": "%"}}
{"smiles": "COc1nccnc1-n1nc(C(F)(F)F)c(-c2cc(Cl)cc(Cl)c2)c1N", "note": "[Ex. 6]", "efficacy": 100}
{"smiles": "C=Cc1nn(-c2nccnc2OC)c(N)c1-c1cc(Cl)cc(C(F)(F)F)c1", "note": "[Ex. 9]", "efficacy": 100}
{"smiles": "COc1nccnc1-n1nc(C(F)(F)F)c(-c2cc(Cl)cc(C(F)(F)F)c2)c1N", "note": "[Ex. 10]", "efficacy": 100}
{"test_system": "red spider mite (Tetranychus urticae)", "assay": "Tetranychus test, OP-resistant (TETRUR spray treatment)", "type": "in vivo", "conditions": "500 g/ha, bean leaf discs, after 6 days", "method": "(§1) Tetranychus Test, OP-Resistant (TETRUR Spray Treatment)\n(§2) Solvent: 78.0 parts by weight of acetone • • 1.5 parts by weight of dimethylformamide\n(§3) Emulsifier: 0.5 part by weight of alkylaryl polyglycol ether\n(§4) To prepare an appropriate active ingredient preparation, 1 part by weight of active ingredient is mixed with the stated amounts of solvent and emulsifier, and the concentrate is diluted with emulsifier-containing water to the desired concentration. Discs of bean leaves (Phaseolus vulgaris) infested by all stages of the red spider mite (Tetranychus urticae) are sprayed with an active ingredient preparation of the desired concentration. After 6 days, the efficacy in % is determined. 100% means that all spider mites have been killed; 0% means that none of the spider mites have been killed.", "units": {"efficacy": "%"}}
{"smiles": "C=Cc1nn(-c2nccnc2OC)c(N)c1-c1cc(Cl)cc(C(F)(F)F)c1", "note": "[Ex. 9]", "efficacy": 100}
{"test_system": "red spider mite (Tetranychus urticae)", "assay": "Tetranychus test, OP-resistant (TETRUR spray treatment)", "type": "in vivo", "conditions": "Tetranychus urticae, foliar, 144 h, 500 g/ha, bean leaf discs, after 6 days, read-out: efficacy", "method": "as §1, §2, §3, §4", "units": {"pest or weed control at 500 g/ha": "%"}}
{"smiles": "CCOc1nccnc1-n1nc(C(F)(F)F)c(-c2cc(Cl)c3c(c2)OCO3)c1N", "note": "[Ex. 171]", "pest or weed control at 500 g/ha": 100}
{"smiles": "CCOc1nccnc1-n1nc(C(F)(F)F)c(-c2cc(C#N)c3c(c2)OCO3)c1N", "note": "[Ex. 172]", "pest or weed control at 500 g/ha": 100}
{"smiles": "COc1nccnc1-n1nc(C(F)(F)F)c(-c2cc(F)c3c(c2)OCO3)c1N", "note": "[Ex. 174]", "pest or weed control at 500 g/ha": 100}
{"smiles": "CCOc1nccnc1-n1nc(C(F)(F)F)c(-c2cc(F)c3c(c2)OCO3)c1N", "note": "[Ex. 175]", "pest or weed control at 500 g/ha": 100}
{"test_system": "green peach aphid (Myzus persicae)", "assay": "Myzus test (MYZUPE spray treatment)", "type": "in vivo", "conditions": "500 g/ha, Chinese cabbage discs, after 6 days", "method": "(§5) Myzus Test (MYZUPE Spray Treatment) Solvent: 78 parts by weight of acetone • • 1.5 parts by weight of dimethylformamide Emulsifier: 0.5 part by weight of alkylaryl polyglycol ether To prepare an appropriate active ingredient preparation, 1 part by weight of active ingredient is mixed with the stated amounts of solvent and emulsifier, and the concentrate is diluted with emulsifier-containing water to the desired concentration. Discs of Chinese cabbage (Brassica pekinensis) infested by all stages of the green peach aphid (Myzus persicae) are sprayed with an active ingredient preparation of the desired concentration. After 6 days, the efficacy in % is determined. 100% means that all of the aphids have been destroyed; 0% means that none of the aphids have been destroyed.", "units": {"efficacy": "%"}}
{"smiles": "C=Cc1nn(-c2nccnc2OC)c(N)c1-c1cc(Cl)cc(C(F)(F)F)c1", "note": "[Ex. 9]", "efficacy": 100}
{"test_system": "green peach aphid (Myzus persicae)", "assay": "Myzus test (MYZUPE spray treatment)", "type": "in vivo", "conditions": "Myzus persicae, 144 h, Chinese cabbage discs, after 6 days, read-out: efficacy", "method": "as §5", "units": {"pest or weed control at 500 g/ha": "%"}}
{"smiles": "CCOc1nccnc1-n1nc(C(F)(F)F)c(-c2cc(Cl)c3c(c2)OCO3)c1N", "note": "[Ex. 171]", "pest or weed control at 500 g/ha": 100}
{"smiles": "CCOc1nccnc1-n1nc(C(F)(F)F)c(-c2cc(C#N)c3c(c2)OCO3)c1N", "note": "[Ex. 172]", "pest or weed control at 500 g/ha": 100}
{"smiles": "COc1nccnc1-n1nc(C(F)(F)F)c(-c2cc(F)c3c(c2)OCO3)c1N", "note": "[Ex. 174]", "pest or weed control at 500 g/ha": 100}
{"smiles": "CCOc1nccnc1-n1nc(C(F)(F)F)c(-c2cc(F)c3c(c2)OCO3)c1N", "note": "[Ex. 175]", "pest or weed control at 500 g/ha": 100}
{"test_system": "unfed adult fleas (Ctenocephalides felis)", "assay": "Ctenocephalides felis test (CTECFE)", "type": "in vivo", "conditions": "100 ppm in citrated cow's blood; after 2 days", "method": "Ctenocephalides felis Test ([…]) Solvent: 1 part by weight of dimethyl sulphoxide For the purpose of preparing an appropriate active ingredient formulation, 10 mg of active ingredient are mixed with 0.5 ml of dimethyl sulphoxide. A portion of the concentrate is diluted with citrated cow's blood and the desired concentration is established. About 20 unfed adult fleas (Ctenocephalides felis) are introduced into a chamber closed at the top and bottom with gauze. A metal cylinder, the bottom of which is closed with Parafilm, is placed onto the chamber. The cylinder contains the blood/active ingredient preparation, which can be imbibed by the fleas through the Parafilm membrane. After 2 days, the kill in % is determined. 100% means that all fleas have been killed; 0% means that none of the fleas have been killed.", "units": {"efficacy (kill)": "%"}}
{"smiles": "COc1nccnc1-n1nc(C(F)(F)F)c(-c2cc(Cl)cc(Cl)c2)c1N", "note": "[Ex. 6]", "efficacy (kill)": 90}
{"smiles": "COc1nccnc1-n1nc(C(F)(F)F)c(-c2cc(Cl)cc(C(F)(F)F)c2)c1N", "note": "[Ex. 10]", "efficacy (kill)": 90}
{"test_system": "adult Musca domestica", "assay": "Musca domestica test", "type": "in vivo", "conditions": "100 ppm; after 2 days", "method": "Musca domestica Test Solvent: dimethyl sulphoxide To prepare an appropriate active ingredient formulation, 10 mg of active ingredient are mixed with 0.5 ml of dimethyl sulphoxide and the concentrate is diluted with water to the desired concentration. Vessels containing a sponge treated with the active ingredient preparation of the desired concentration are populated with adult Musca domestica. After 2 days, the kill in % is determined. 100% means that all of the flies have been killed; 0% means that none of the flies have been killed.", "units": {"efficacy (kill)": "%"}}
{"smiles": "COc1nccnc1-n1nc(C(F)(F)F)c(-c2cc(Cl)cc(Cl)c2)c1N", "note": "[Ex. 6]", "efficacy (kill)": 80}
{"smiles": "COc1nccnc1-n1nc(C(F)(F)F)c(-c2cc(Cl)cc(C(F)(F)F)c2)c1N", "note": "[Ex. 10]", "efficacy (kill)": 100}
{"test_system": "caterpillars of the armyworm (Spodoptera frugiperda)", "assay": "Spodoptera frugiperda test (SPODFR spray treatment)", "type": "in vivo", "conditions": "500 g/ha, maize leaf discs, after 7 days", "method": "(§6) Spodoptera frugiperda Test (SPODFR Spray Treatment) Solvent: 78.0 parts by weight of acetone • • 1.5 parts by weight of dimethylformamide Emulsifier: 0.5 part by weight of alkylaryl polyglycol ether To prepare an appropriate active ingredient preparation, 1 part by weight of active ingredient is mixed with the stated amounts of solvent and emulsifier, and the concentrate is diluted with emulsifier-containing water to the desired concentration. Discs of maize leaves (Zea mays) are sprayed with an active ingredient preparation of the desired concentration and, after drying, populated with caterpillars of the armyworm (Spodoptera frugiperda). After 7 days, the efficacy in % is determined. 100% means that all caterpillars have been killed; 0% means that none of the caterpillars have been killed.", "units": {"efficacy": "%"}}
{"smiles": "COc1nccnc1-n1nc(C(F)(F)F)c(-c2cc(Cl)cc(Cl)c2)c1N", "note": "[Ex. 6]", "efficacy": 83}
{"smiles": "C=Cc1nn(-c2nccnc2OC)c(N)c1-c1cc(Cl)cc(C(F)(F)F)c1", "note": "[Ex. 9]", "efficacy": 100}
{"test_system": "caterpillars of the armyworm (Spodoptera frugiperda)", "assay": "Spodoptera frugiperda test (SPODFR spray treatment)", "type": "in vivo", "conditions": "Spodoptera frugiperda, foliar, 168 h, maize leaf discs, after 7 days, read-out: efficacy", "method": "as §6", "units": {"pest or weed control at 500 g/ha": "%"}}
{"smiles": "CCOc1nccnc1-n1nc(C(F)(F)F)c(-c2cc(Cl)c3c(c2)OCO3)c1N", "note": "[Ex. 171]", "pest or weed control at 500 g/ha": 100}
{"smiles": "CCOc1nccnc1-n1nc(C(F)(F)F)c(-c2cc(C#N)c3c(c2)OCO3)c1N", "note": "[Ex. 172]", "pest or weed control at 500 g/ha": 100}
{"smiles": "COc1nccnc1-n1nc(C(F)(F)F)c(-c2cc(F)c3c(c2)OCO3)c1N", "note": "[Ex. 174]", "pest or weed control at 500 g/ha": 100}
{"smiles": "CCOc1nccnc1-n1nc(C(F)(F)F)c(-c2cc(F)c3c(c2)OCO3)c1N", "note": "[Ex. 175]", "pest or weed control at 500 g/ha": 100}
{"test_system": "larvae of the mustard beetle (Phaedon cochleariae)", "assay": "Phaedon test (PHAECO spray treatment)", "type": "in vivo", "conditions": "500 g/ha, Chinese cabbage discs, after 7 days", "method": "(§7) Phaedon Test ([…] Spray Treatment) Solvent: 78.0 parts by weight of acetone • • 1.5 parts by weight of dimethylformamide Emulsifier: 0.5 part by weight of alkylaryl polyglycol ether To prepare an appropriate active ingredient preparation, 1 part by weight of active ingredient is mixed with the stated amounts of solvent and emulsifier, and the concentrate is diluted with emulsifier-containing water to the desired concentration. Discs of Chinese cabbage (Brassica pekinensis) are sprayed with an active ingredient preparation of the desired concentration and, after drying, populated with larvae of the mustard beetle (Phaedon cochleariae). After 7 days, the efficacy in % is determined. 100% means that all beetle larvae have been killed; 0% means that none of the beetle larvae have been killed.", "units": {"efficacy": "%"}}
{"smiles": "COc1nccnc1-n1nc(C(F)(F)F)c(-c2cc(Cl)cc(Cl)c2)c1N", "note": "[Ex. 6]", "efficacy": 100}
{"smiles": "C=Cc1nn(-c2nccnc2OC)c(N)c1-c1cc(Cl)cc(C(F)(F)F)c1", "note": "[Ex. 9]", "efficacy": 100}
{"test_system": "larvae of the mustard beetle (Phaedon cochleariae)", "assay": "Phaedon test (PHAECO spray treatment)", "type": "in vivo", "conditions": "Phaedon cochleariae, 168 h, Chinese cabbage discs, after 7 days, read-out: efficacy", "method": "as §7", "units": {"pest or weed control at 500 g/ha": "%"}}
{"smiles": "CCOc1nccnc1-n1nc(C(F)(F)F)c(-c2cc(Cl)c3c(c2)OCO3)c1N", "note": "[Ex. 171]", "pest or weed control at 500 g/ha": 100}
{"smiles": "CCOc1nccnc1-n1nc(C(F)(F)F)c(-c2cc(C#N)c3c(c2)OCO3)c1N", "note": "[Ex. 172]", "pest or weed control at 500 g/ha": 100}
{"smiles": "COc1nccnc1-n1nc(C(F)(F)F)c(-c2cc(F)c3c(c2)OCO3)c1N", "note": "[Ex. 174]", "pest or weed control at 500 g/ha": 100}
{"smiles": "CCOc1nccnc1-n1nc(C(F)(F)F)c(-c2cc(F)c3c(c2)OCO3)c1N", "note": "[Ex. 175]", "pest or weed control at 500 g/ha": 100}
